Reference: ChEMBL document CHEMBL3734684, “Identification and optimisation of a series of tetrahydrobenzotriazoles as metabotropic glutamate receptor 5-selective positive allosteric modulators that improve performance in a preclinical model of cognition” (Bioorg Med Chem Lett, 2015)
Converted amounts (≈) assume the structure as drawn. The source made the active and inactive calls. The rule behind the calls is not given here.

Columns and labels:
[1] = target: Metabotropic glutamate receptor 5 (Rattus norvegicus) (UniProt P31424); test: Positive allosteric modification of mGlu5 receptor in rat cortical astrocytes assessed as maximal leftward shift in the EC50 of glutamate induced response upto 25 uM; assay type: cell-based
Metabotropic glutamate receptor 5 (Rattus norvegicus), sequence (P31424 21-1203 limits assumed): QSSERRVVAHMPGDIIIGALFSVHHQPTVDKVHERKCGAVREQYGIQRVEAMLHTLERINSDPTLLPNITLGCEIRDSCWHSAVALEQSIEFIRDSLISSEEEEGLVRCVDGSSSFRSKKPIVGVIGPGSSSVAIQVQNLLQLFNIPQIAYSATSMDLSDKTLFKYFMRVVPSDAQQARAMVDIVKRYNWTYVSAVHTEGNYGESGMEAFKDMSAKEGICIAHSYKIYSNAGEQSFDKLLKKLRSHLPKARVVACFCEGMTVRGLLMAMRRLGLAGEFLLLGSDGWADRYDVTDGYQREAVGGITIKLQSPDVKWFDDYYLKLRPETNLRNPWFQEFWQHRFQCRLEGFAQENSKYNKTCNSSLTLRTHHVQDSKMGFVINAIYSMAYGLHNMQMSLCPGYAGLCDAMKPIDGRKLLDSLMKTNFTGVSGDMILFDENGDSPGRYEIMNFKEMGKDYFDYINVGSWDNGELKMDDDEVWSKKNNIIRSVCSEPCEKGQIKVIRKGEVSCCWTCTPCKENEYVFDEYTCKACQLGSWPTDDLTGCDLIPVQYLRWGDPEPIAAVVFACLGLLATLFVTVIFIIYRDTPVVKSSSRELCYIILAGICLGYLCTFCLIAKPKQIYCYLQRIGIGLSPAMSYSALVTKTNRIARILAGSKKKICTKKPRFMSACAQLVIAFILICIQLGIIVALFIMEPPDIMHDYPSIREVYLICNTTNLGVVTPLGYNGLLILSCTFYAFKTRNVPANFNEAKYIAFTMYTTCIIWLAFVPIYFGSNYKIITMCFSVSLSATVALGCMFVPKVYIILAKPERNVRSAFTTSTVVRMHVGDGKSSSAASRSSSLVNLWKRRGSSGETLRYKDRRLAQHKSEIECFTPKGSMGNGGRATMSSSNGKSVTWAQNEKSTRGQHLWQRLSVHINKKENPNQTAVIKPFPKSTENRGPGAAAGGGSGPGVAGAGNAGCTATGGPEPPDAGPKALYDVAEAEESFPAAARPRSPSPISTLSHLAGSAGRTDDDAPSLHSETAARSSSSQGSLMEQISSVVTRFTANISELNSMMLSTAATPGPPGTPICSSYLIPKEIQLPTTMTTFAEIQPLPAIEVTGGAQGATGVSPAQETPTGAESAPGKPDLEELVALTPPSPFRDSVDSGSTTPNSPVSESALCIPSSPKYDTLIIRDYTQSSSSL

[2] = target: T1, Metabotropic glutamate receptor 5 (Homo sapiens, UniProt P41594); test: Positive allosteric modification of human recombinant mGlu5 receptor expressed in U2OS cells assessed as Ca2+ flux upto 25 uM relative to glutamate; assay type: functional, cell-based
Target sequence in this assay (P41594 21-1212 limits assumed): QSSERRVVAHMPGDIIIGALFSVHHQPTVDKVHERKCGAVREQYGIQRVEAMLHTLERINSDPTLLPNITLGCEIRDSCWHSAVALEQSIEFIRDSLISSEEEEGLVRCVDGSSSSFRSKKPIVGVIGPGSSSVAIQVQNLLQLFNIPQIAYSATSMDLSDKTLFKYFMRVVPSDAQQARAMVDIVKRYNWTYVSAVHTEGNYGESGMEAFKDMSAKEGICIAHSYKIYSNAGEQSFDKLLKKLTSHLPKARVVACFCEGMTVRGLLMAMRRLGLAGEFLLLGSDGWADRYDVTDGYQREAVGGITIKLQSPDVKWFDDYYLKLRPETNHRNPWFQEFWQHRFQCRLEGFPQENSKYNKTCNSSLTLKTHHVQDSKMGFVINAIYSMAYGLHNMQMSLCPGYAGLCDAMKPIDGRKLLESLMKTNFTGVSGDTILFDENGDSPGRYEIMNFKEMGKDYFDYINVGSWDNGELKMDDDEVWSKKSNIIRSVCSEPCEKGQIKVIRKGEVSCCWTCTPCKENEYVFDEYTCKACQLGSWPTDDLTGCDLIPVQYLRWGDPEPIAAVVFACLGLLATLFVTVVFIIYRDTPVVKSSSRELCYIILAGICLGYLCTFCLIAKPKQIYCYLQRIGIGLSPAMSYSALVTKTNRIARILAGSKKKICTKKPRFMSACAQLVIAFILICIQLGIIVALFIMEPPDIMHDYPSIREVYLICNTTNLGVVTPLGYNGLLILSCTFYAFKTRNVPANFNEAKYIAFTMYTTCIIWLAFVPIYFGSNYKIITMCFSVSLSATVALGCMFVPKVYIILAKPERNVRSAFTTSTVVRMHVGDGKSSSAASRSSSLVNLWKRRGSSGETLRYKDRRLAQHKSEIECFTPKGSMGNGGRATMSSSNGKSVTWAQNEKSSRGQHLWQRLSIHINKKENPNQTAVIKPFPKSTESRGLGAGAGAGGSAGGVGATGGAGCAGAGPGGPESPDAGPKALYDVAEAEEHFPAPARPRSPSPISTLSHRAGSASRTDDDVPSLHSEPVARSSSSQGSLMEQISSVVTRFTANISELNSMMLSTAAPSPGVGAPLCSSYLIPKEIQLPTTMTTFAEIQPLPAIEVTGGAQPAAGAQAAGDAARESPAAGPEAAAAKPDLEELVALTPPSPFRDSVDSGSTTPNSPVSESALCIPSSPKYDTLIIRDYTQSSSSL

[3] = target: T1, Metabotropic glutamate receptor 5; test: Positive allosteric modification of human recombinant mGlu5 receptor expressed in U2OS cells assessed as potentiation of glutamate-induced Ca2+ flux in presence of EC20 glutamate; assay type: functional, cell-based
Target sequence in this assay (P41594 whole entry): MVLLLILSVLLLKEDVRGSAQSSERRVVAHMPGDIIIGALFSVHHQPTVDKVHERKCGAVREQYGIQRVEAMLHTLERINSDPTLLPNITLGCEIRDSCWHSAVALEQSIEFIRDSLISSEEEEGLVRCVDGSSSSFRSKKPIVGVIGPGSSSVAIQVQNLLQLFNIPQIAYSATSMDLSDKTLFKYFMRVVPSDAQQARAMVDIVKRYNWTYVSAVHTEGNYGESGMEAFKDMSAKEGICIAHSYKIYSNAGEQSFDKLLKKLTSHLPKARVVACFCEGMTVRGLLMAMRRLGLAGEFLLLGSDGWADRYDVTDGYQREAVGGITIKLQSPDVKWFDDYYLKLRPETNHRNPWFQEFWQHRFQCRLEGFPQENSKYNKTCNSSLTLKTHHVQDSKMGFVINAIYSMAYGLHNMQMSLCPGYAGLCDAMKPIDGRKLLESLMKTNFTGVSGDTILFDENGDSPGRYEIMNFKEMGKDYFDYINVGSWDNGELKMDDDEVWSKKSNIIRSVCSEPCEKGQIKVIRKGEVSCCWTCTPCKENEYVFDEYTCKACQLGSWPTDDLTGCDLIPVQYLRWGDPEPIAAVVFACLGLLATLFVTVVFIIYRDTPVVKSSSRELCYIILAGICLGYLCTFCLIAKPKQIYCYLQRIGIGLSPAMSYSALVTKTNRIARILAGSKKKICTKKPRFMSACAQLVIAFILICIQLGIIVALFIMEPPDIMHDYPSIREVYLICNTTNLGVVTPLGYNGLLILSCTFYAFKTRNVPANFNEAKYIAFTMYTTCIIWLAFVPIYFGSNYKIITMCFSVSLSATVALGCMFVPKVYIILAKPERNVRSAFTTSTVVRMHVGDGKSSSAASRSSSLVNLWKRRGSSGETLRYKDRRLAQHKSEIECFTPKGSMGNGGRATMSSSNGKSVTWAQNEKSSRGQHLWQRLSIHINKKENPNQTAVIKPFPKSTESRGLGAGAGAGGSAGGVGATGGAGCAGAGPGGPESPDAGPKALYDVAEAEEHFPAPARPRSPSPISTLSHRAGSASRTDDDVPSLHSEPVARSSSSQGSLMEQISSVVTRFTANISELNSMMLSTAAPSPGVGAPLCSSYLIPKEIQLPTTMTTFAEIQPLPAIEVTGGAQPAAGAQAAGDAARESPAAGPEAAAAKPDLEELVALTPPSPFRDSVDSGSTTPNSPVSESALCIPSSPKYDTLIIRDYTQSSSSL

[4] = Intrinsic clearance in rat liver microsomes at 3 uM; assay type: ADME; settings: read-out: CLH
[5] = target: Voltage-gated inwardly rectifying potassium channel KCNH2 (Homo sapiens, UniProt Q12809); test: Inhibition of human ERG
Voltage-gated inwardly rectifying potassium channel KCNH2, sequence (Q12809 whole entry): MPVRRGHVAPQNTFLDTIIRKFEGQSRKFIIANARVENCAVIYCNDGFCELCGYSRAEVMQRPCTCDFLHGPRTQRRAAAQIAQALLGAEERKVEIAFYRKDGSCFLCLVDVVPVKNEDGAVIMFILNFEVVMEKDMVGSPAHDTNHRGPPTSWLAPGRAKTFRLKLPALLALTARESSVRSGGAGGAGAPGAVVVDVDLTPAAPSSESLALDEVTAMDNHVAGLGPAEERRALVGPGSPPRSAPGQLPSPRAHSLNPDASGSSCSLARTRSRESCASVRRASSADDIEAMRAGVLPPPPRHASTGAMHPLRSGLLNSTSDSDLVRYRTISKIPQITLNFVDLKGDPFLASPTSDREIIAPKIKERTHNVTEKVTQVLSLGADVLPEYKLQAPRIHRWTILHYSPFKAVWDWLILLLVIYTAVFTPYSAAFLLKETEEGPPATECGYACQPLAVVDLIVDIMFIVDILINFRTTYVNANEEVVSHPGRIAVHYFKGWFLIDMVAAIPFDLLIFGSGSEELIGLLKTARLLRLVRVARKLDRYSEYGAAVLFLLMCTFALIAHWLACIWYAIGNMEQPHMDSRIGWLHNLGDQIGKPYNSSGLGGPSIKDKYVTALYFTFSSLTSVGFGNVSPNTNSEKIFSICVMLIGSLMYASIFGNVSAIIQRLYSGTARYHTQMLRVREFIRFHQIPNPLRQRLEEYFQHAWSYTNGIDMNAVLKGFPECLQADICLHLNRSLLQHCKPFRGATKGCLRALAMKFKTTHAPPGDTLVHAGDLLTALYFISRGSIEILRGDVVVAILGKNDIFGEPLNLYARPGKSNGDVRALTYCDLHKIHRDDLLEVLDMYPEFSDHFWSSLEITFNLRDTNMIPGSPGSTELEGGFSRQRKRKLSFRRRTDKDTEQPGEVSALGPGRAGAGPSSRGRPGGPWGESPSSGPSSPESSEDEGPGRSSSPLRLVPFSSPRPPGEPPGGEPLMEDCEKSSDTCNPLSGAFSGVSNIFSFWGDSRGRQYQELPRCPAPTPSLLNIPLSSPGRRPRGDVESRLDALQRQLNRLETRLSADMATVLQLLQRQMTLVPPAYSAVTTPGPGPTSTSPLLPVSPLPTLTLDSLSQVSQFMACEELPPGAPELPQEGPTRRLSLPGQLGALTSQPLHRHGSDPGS

[6] = Brain to plasma ratio in Sprague-Dawley rat at 3 mg/kg, po; assay type: ADME, organism-based; settings: brain and plasma, read-out: BPR
[7] = Fraction unbound in rat brain; assay type: ADME, tissue-based
[8] = tested on: MDCK; test: Permeability from apical to basolateral side in MDCK cells at 1 uM; assay type: ADME, cell-based, Canis lupus familiaris; settings: dog
[9] = Tmax in Sprague-Dawley rat at 3 mg/kg, po; assay type: ADME, organism-based; settings: in vivo
[10] = Oral bioavailability in Sprague-Dawley rat at 3 mg/kg; assay type: ADME, organism-based; settings: in vivo
[11] = Inhibition of CYP450 (unknown origin); assay type: ADME; settings: human
[12] = species on record: Homo sapiens; test: Negative allosteric modification of mGlu receptor (unknown origin)
[13] = tested on: MDCK; test: Efflux ratio of permeability from apical to basolateral side to basolateral to apical side in MDCK cells; assay type: ADME, cell-based, Canis lupus familiaris; settings: dog
[14] = Intrinsic clearance in human liver microsomes at 3 uM; assay type: ADME; settings: read-out: CLH
[15] = species on record: Homo sapiens; test: Positive allosteric modification of mGlu receptor (unknown origin)
[16] = tested on: Rattus norvegicus; test: Cognitive enhancing effect in po dosed rat measured after 4 hrs by novel object recognition test; assay type: functional; settings: for minimal effective dose: Rattus norvegicus, po, 4 h, read-out: MED
[17] = Cmax in Sprague-Dawley rat plasma at 3 mg/kg, po; assay type: ADME, organism-based; design: dose 3 mg/kg, route oral
[18] = Clearance in Sprague-Dawley rat at 0.5 mg/kg, iv; assay type: ADME, organism-based; settings: in vivo
[19] = Volume of distribution at steady state in Sprague-Dawley rat at 0.5 mg/kg, iv; assay type: ADME, organism-based; settings: in vivo, read-out: Vdss
[20] = Half life in Sprague-Dawley rat at 3 mg/kg, po; assay type: ADME, organism-based; settings: in vivo
[21] = Kinetic solubility of compound in phosphate buffer saline at pH 7.4; assay type: physicochemical; settings: for solubility kinetic: phosphate buffered saline, read-out: Kinetic_solubility
[22] = species on record: Homo sapiens; test: Agonist activity at mGlu receptor (unknown origin)
[23] = Clearance in Sprague-Dawley rat at 0.25 mg/kg, iv; assay type: ADME, organism-based; settings: in vivo
[24] = Volume of distribution at steady state in Sprague-Dawley rat at 0.25 mg/kg, iv; assay type: ADME, organism-based; settings: in vivo, read-out: Vdss

Fc1ccc(-c2noc(C3CCc4c(nnn4C4CCCC4)C3)n2)cc1 (stereo in doubt; 9) [listing 1 of 2 here]
fold change (FC) [1]: 10
%max [2]: 103%

Fc1ccc(-c2noc(C3CCc4c(nnn4-c4ccc(F)nc4)C3)n2)cc1 (stereo not given)
EC50 [3]: > 25100 nM

CC(C)(C)n1nnc2c1CCC(c1nnc(-c3ccc(F)cc3)o1)C2 (racemic)
EC50 [3]: 3160 nM
%max [2]: 53%

CC(C)(C)Cn1nnc2c1CCC(c1nc(-c3ccc(F)cc3)no1)C2 (stereo not given)
fold change (FC) [1]: 8
EC50 [3]: 31.6 nM
%max [2]: 108%

CC(C)(C)n1nnc2c1CCC(c1nc(-c3ccc(C#N)cc3)no1)C2 (stereo not given)
fold change (FC) [1]: 6
EC50 [3]: 79.4 nM
%max [2]: 87%

Fc1ccc(-c2noc(C3CCc4c(nnn4C4CCCC4)C3)n2)cc1 (stereo in doubt; 9) [listing 2 of 2 here]
EC50 [3]: 31.6 nM
microsomal CLint at 3 µM [4]: 146 µL/min/mg

CC(C)(C)n1nnc2c1CCC(n1cnc(-c3ccc(F)cc3)n1)C2 (stereo not given)
IC50 [5]: 6310 nM
Kp [6]: 1.4
fraction unbound [7]: 0.056
permeability [8]: 46 ×10⁻⁶ cm/s
Tmax [9]: 2.7 h
bioavailability [10]: 114%
inhibition (INH) [11]: Not Active
fold change (FC) [1]: 3
Activity [12]: inactive
Ratio [13]: 0.8
microsomal CLint at 3 µM [14]: 4 µL/min/mg
Activity [15]: inactive
minimal effective dose [16]: 0.3 mg/kg
Cmax [17]: 1950 nM
clearance [18]: 14 mL/min/kg
Vd [19]: 1.9 L/kg
EC50 [3]: 50.1 nM
%max [2]: 80%
half-life [20]: 2.9 h
solubility kinetic [21]: > 100 µM
Activity [22]: inactive
microsomal CLint at 3 µM [4]: 20 µL/min/mg

Fc1ccc(-c2noc(C3CCc4c(nnn4-c4ccc(F)cc4)C3)n2)cc1 (stereo not given)
fraction unbound [7]: 0.003
fold change (FC) [1]: 3
EC50 [3]: 15.8 nM
%max [2]: 106%
Kinetic_solubility ([21]; buffer): Insoluble

CC(C)(C#N)n1nnc2c1CCC(c1nc(-c3ccc(F)cc3)no1)C2 (stereo not given)
Kp [6]: 3.2
fraction unbound [7]: 0.015
permeability [8]: 43 ×10⁻⁶ cm/s
Tmax [9]: 6 h
bioavailability [10]: 45%
inhibition (INH) [11]: Not Active
fold change (FC) [1]: 3
Activity [12]: inactive
Ratio [13]: 0.6
microsomal CLint at 3 µM [14]: 9 µL/min/mg
Activity [15]: inactive
LED [16]: 0.03 mg/kg
clearance [23]: 4 mL/min/kg
Cmax [17]: 891 nM
EC50 [3]: 15.8 nM
%max [2]: 71%
Vd [24]: 2.5 L/kg
half-life [20]: 7 h
solubility kinetic [21]: 5.6 µM (≈ 1.97 µg/mL)
Activity [22]: inactive
microsomal CLint at 3 µM [4]: 6 µL/min/mg

CC(C)(C)n1nnc2c1CCC(c1nc(-c3ccc(F)cc3)no1)C2 (stereo not given)
Kp [6]: 2
fraction unbound [7]: 0.013
permeability [8]: 42 ×10⁻⁶ cm/s
Tmax [9]: 4 h
bioavailability [10]: 46%
inhibition (INH) [11]: Not Active
fold change (FC) [1]: 4
Activity [12]: inactive
Ratio [13]: 0.8
microsomal CLint at 3 µM [14]: 18 µL/min/mg
Activity [15]: inactive
minimal effective dose [16]: 0.3 mg/kg
Cmax [17]: 438 nM
clearance [18]: 11 mL/min/kg
Vd [19]: 4.3 L/kg
EC50 [3]: 5.01 nM
%max [2]: 98%
half-life [20]: 6.5 h
solubility kinetic [21]: 6 µM (≈ 2.05 µg/mL)
Activity [22]: inactive
microsomal CLint at 3 µM [4]: 20 µL/min/mg

CC1(n2nnc3c2CCC(c2nc(-c4ccc(F)cc4)no2)C3)CCOCC1 (stereo not given)
fold change (FC) [1]: 7
EC50 [3]: 10 nM
%max [2]: 103%

CC(C)(C)n1nnc2c1CCC(c1noc(-c3ccc(F)cc3)n1)C2 (stereo not given)
fold change (FC) [1]: 5
EC50 [3]: 5.01 nM
%max [2]: 85%

Fc1ccc(-c2noc(C3CCc4c(nnn4C4CCCC4)C3)n2)cc1 (stereo in doubt; 10) [listing 1 of 2 here]
fold change (FC) [1]: 4
%max [2]: 78%

CN1CCC(n2nnc3c2CCC(c2nc(-c4ccc(F)cc4)no2)C3)CC1 (racemic)
EC50 [3]: 3980 nM
%max [2]: 91%

Fc1ccc(-c2noc(C3CCc4c(nnn4C4CCOC4)C3)n2)cc1 (stereo not given)
fold change (FC) [1]: 4
EC50 [3]: 398 nM
%max [2]: 96%
microsomal CLint at 3 µM [4]: 22 µL/min/mg

Fc1ccc(-c2noc(C3CCc4c(nnn4C4CCCC4)C3)n2)cc1 (stereo in doubt; 10) [listing 2 of 2 here]
EC50 [3]: 398 nM

CC(C)Cc1noc(C2CCc3c(nnn3C(C)(C)C)C2)n1 (racemic)
EC50 [3]: 1000 nM
%max [2]: 66%

CC(C)(C)n1nnc2c1CCC(c1nc(N3CCOCC3)no1)C2 (racemic)
EC50 [3]: 1260 nM
%max [2]: 29%

CC(C)(C)n1nnc2c1CCC(c1nc(C3CCCCC3)no1)C2 (racemic)
EC50 [3]: 200 nM
%max [2]: 91%

Fc1ccc(-c2nc(-c3ccc4c(c3)nnn4C3CCCC3)no2)cc1
EC50 [3]: 398 nM
%max [2]: 51%

Cc1ccc(-c2noc(C3CCc4c(nnn4C(C)(C)C)C3)n2)cn1 (racemic)
EC50 [3]: 1580 nM
%max [2]: 67%

CN(C)c1ccc(-c2noc(C3CCc4c(nnn4C(C)(C)C)C3)n2)cc1 (racemic)
EC50 [3]: 1000 nM
%max [2]: 68%

CC(C)(C)n1nnc2c1CCC(c1nc(Cc3ccc(F)cc3)no1)C2 (stereo not given)
fold change (FC) [1]: 7
EC50 [3]: 20 nM
%max [2]: 77%
microsomal CLint at 3 µM [4]: 120 µL/min/mg

CC(C)n1nnc2c1CCC(c1nc(-c3ccc(F)cc3)no1)C2 (racemic)
EC50 [3]: 398 nM
%max [2]: 98%
